Data from patent US6403826B1, “Corrosion-inhibiting coating composition for metals” (Ciba Specialty Chemicals Corporation, priority 1996, dated 2002).

Key:
[1] = Salt spray test DIN 50 021 SS, 168 hours, of acrylic dispersion coating (Maincote HG-54) with corrosion inhibitor; corrosion protection factor CPF; conditions: salt spray 168 hours, coat thickness 50 to 55 μm; for CPF film / CPF metal: maximum 6 points, greater = better; for CPF: sum of film and metal, maximum 12 points
Protocol: (§1) In order to prepare the coating formulation (acrylic dispersion based on Maincote HG-54), components 1 to 8 (formulation without amine salt) and components 1 to 9 (formulation comprising an amine salt) are employed in the sequence stated (see Table 1).
(§2) Components 1 to 8 or 1 to 9 are dispersed using a high-speed stirrer at 3000 revolutions/minute to a degree of ground fineness or ground particulate nature of <15 μm. The outcome of dispersing the pigment paste thus obtained is assessed by determining the grindometer value (ISO 1524).The amount of the novel salts employed is based on the overall solids content of the formulation without salt (overall solids content 47%). Accordingly, an addition of, say, 1.0% of amine salt to 100 g of dispersion denotes, for example, an amount of 0.47 g. To complete the coating formulation, components 10 to 16 of Table 1 are added at a reduced stirring speed (1000 revolutions/minute) in the stated sequence. Subsequently, the pH of the formulation is checked and, if appropriate, is adjusted prior to application to a value of from 8 to 8.5 using ammonia solution (25% strength).
(§3) The coating formulations are applied to steel panels (19×10.5 cm) of the Bonder type (cold-rolled degreased steel; manufactured by Chemetall, Frankfurt am Main/Germany) in a coat thickness which after drying amounts to 50-55 μm. Drying conditions: 10 days at room temperature.
(§4) Prior to the beginning of weathering, the “coating films” undergo defined damage in the form of a parallel cut (i.e. parallel to the longest panel edge) using a Bonder cross-cut instrument (Mod. 205; manufactured and sold by Lau, 5870 Hemer/Germany). The panel edges are protected by applying an edge protector (Icosit® 255; manufactured by Inertol AG, Winterthur/Switzerland).
(§5) The samples are subsequently subjected to accelerated weathering in a salt spray test in accordance with DIN 50 021 SS for 168 hours (Table 2) or to a humidity test in accordance with ASTM D 4585-87 for 330 hours (Table 3). The assessment of the results is based on the relevant DIN standards in accordance with an evaluation key, by the indication of a corrosion protection value CPF (Corrosion Protection Factor). The CPF is an additive term composed of an assessment of the coating (film) and an assessment of visible underfilm corrosion and appearance of the metal surface, and has a maximum of 12 points. The individual maximum values are 6 points each. The greater the CPF, the better the protection against corrosion.

[2] = Subfilm migration in the wet state (cathodic delamination) along the artificial damage, DIN 53 167, after the salt spray test; conditions: after salt spray 168 hours, coat thickness 50 to 55 μm, lesser = more effective
Text: as §3, §4
(§6) As additional assessment criteria, the “subfilm migration in the wet state” (cathodic delamination) along the artificial damage side is determined, after the end of the salt spray test, in accordance with DIN 53 167. […] After the end of the humidity test, the wet adhesion of the coating formulation is determined in accordance with DIN 53 151 by making a crosshatch cut followed by the tape tearoff test. According to DIN 53 151 (scale from Gt 0 to Gt 5) a crosshatch value of Gt 0 corresponds to completely intact adhesion of the coating film, whereas Gt 5 corresponds to inadequate adhesion.

[3] = Humidity test ASTM D 4585-87, 330 hours, of acrylic dispersion coating (Maincote HG-54) with corrosion inhibitor; corrosion protection factor CPF; conditions: humidity test 330 hours, coat thickness 45 to 50 μm; for CPF film / CPF metal: maximum 6 points, greater = better; for CPF: sum of film and metal, maximum 12 points
Protocol: as §1, §2
[…] Drying conditions: 10 days at room temperature.
as §4, §5

[4] = Wet adhesion of the coating formulation, DIN 53 151 crosshatch cut and tape tearoff test, after the humidity test; conditions: after humidity test 330 hours, scale Gt 0 (completely intact adhesion) to Gt 5 (inadequate adhesion)
Protocol: as §3, §6

[5] = 1% inhibitor on overall solids content
[6] = 2% inhibitor on overall solids content

SMILES | CPF film [1, 5] | CPF metal [1, 5] | CPF ([1]; 1% inhibitor) | CPF film [1, 6] | CPF metal [1, 6] | CPF ([1]; 2% inhibitor) | Cathodic delamination (mm total) ([2]; 1% inhibitor) [mm] | Cathodic delamination (mm total) ([2]; 2% inhibitor) [mm] | CPF film [3, 5] | CPF metal [3, 5] | CPF ([3]; 1% inhibitor) | CPF film [3, 6] | CPF metal [3, 6] | CPF ([3]; 2% inhibitor) | Wet adhesion (Gt value) ([4]; 1% inhibitor) | Wet adhesion (Gt value) ([4]; 2% inhibitor) [Gt]
CCCCCCCCCCCCCCCCCCN(CP(=O)(O)O)CP(=O)(O)O.CCN1CCOCC1.CCN1CCOCC1 [Example 1, n-Octadecylaminobismethylenephosphonic Acid, Salt with Two Equivalents of N-ethylmorpholine] | 6.0 | 5.0 | 11.0 | 6.0 | 5.2 | 11.2 | 28 | 30 | 4.0 | 4.0 | 8.0 | 5.0 | 4.0 | 9.0 | 0 Gt | 0
CCCCCCCCCCN(CP(=O)(O)O)CP(=O)(O)O.OCCN(CCO)CCO.OCCN(CCO)CCO [Example 17, n-Decylaminobismethylenephosphonic Acid, Salt with Two Equivalents of Triethanolamine] | 5.4 | 5.5 | 10.9 |  |  |  | 16 |  |  |  |  |  |  |  |  | 
CCCCCCN(CP(=O)(O)O)CP(=O)(O)O.CCN1CCOCC1.CCN1CCOCC1 [Example 10, n-Hexylaminobismethylenephosphonic Acid, Salt with Two Equivalents of N-ethylmorpholine] | 4.6 | 5.4 | 10.0 |  |  |  | 24 |  | 4.0 | 3.8 | 7.8 | 4.4 | 6.0 | 10.4 | 0 Gt | 0
CCCCCCCCCCCCCCCCN(CP(=O)(O)O)CP(=O)(O)O.CCN1CCOCC1.CCN1CCOCC1 [Example 5, n-Hexadecylaminobismethylenephosphonic Acid, Salt with Two Equivalents of N-ethylmorpholine] | 5.2 | 5.0 | 10.2 |  |  |  | 26 |  | 4.2 | 5.0 | 9.2 |  |  |  | 0 Gt | 
CCCCCCCCCCN(CP(=O)(O)O)CP(=O)(O)O.CCN1CCOCC1.CCN1CCOCC1 [Example 8, n-Decylaminobismethylenephosphonic Acid, Salt with Two Equivalents of N-ethylmorpholine] | 5.2 | 5.4 | 10.6 | 5.2 | 5.2 | 10.4 | 12 | 10 | 5.2 | 4.7 | 9.9 |  |  |  | 0-1 Gt | 
CCCCCCN(CCCCCC)CP(=O)(O)O.CCN1CCOCC1.CCN1CCOCC1 [Example 2, Dihexylaminomethylenephosphonic Acid, Salt with Two Equivalents of N-ethylmorpholine] | 4.2 | 5.2 | 9.4 |  |  |  | 14 |  | 4.0 | 4.0 | 8.0 |  |  |  | 0 Gt | 
